According to the NIST ThermoML archive (doi:10.1021/je400055v):
± gives the expanded uncertainty stated by the source.

Test: xn = mol fraction of the nth substance listed
Conditions: Liquid, Vibrating tube method

Structure (SMILES): CCCCCCCCCCC [undecane] + CCCCCCC
- mass density (313.12 K, 2001 kPa, x2 = 0.5063): 703.7 ± 0.3 kg/m3
- mass density (313.12 K, 3000 kPa, x2 = 0.5063): 704.6 ± 0.3 kg/m3
- mass density (313.12 K, 4000 kPa, x2 = 0.5063): 705.6 ± 0.3 kg/m3
- mass density (313.12 K, 5000 kPa, x2 = 0.5063): 706.5 ± 0.3 kg/m3
- mass density (313.12 K, 6000 kPa, x2 = 0.5063): 707.4 ± 0.3 kg/m3
- mass density (313.12 K, 7000 kPa, x2 = 0.5063): 708.2 ± 0.3 kg/m3
- mass density (313.12 K, 8001 kPa, x2 = 0.5063): 709.1 ± 0.3 kg/m3
- mass density (313.12 K, 9000 kPa, x2 = 0.5063): 709.9 ± 0.3 kg/m3
- mass density (313.12 K, 10000 kPa, x2 = 0.5063): 710.8 ± 0.3 kg/m3
- mass density (313.12 K, 11000 kPa, x2 = 0.5063): 711.6 ± 0.3 kg/m3
- mass density (313.12 K, 12000 kPa, x2 = 0.5063): 712.4 ± 0.3 kg/m3
- mass density (313.12 K, 13000 kPa, x2 = 0.5063): 713.2 ± 0.3 kg/m3
- mass density (313.12 K, 14000 kPa, x2 = 0.5063): 714 ± 0.3 kg/m3
- mass density (313.12 K, 15000 kPa, x2 = 0.5063): 714.8 ± 0.4 kg/m3
- mass density (313.12 K, 16000 kPa, x2 = 0.5063): 715.6 ± 0.4 kg/m3
- mass density (313.12 K, 17001 kPa, x2 = 0.5063): 716.3 ± 0.4 kg/m3
- mass density (313.12 K, 18000 kPa, x2 = 0.5063): 717.1 ± 0.4 kg/m3
- mass density (313.12 K, 19000 kPa, x2 = 0.5063): 717.8 ± 0.4 kg/m3
- mass density (313.12 K, 20000 kPa, x2 = 0.5063): 718.5 ± 0.4 kg/m3
- mass density (313.12 K, 21001 kPa, x2 = 0.5063): 719.2 ± 0.4 kg/m3
- mass density (313.12 K, 22050 kPa, x2 = 0.5063): 720 ± 0.4 kg/m3
- mass density (313.12 K, 23000 kPa, x2 = 0.5063): 720.6 ± 0.4 kg/m3
- mass density (313.12 K, 24000 kPa, x2 = 0.5063): 721.3 ± 0.4 kg/m3
- mass density (313.12 K, 25000 kPa, x2 = 0.5063): 722 ± 0.4 kg/m3
- mass density (313.14 K, 1001 kPa, x2 = 0.9511): 671.7 ± 0.3 kg/m3
- mass density (313.14 K, 2000 kPa, x2 = 0.9511): 672.8 ± 0.3 kg/m3
- mass density (313.14 K, 3000 kPa, x2 = 0.9511): 673.9 ± 0.3 kg/m3
- mass density (313.14 K, 4000 kPa, x2 = 0.9511): 674.9 ± 0.3 kg/m3
- mass density (313.14 K, 5000 kPa, x2 = 0.9511): 676 ± 0.3 kg/m3
- mass density (313.14 K, 6000 kPa, x2 = 0.9511): 677 ± 0.3 kg/m3
- mass density (313.14 K, 7000 kPa, x2 = 0.9511): 678 ± 0.3 kg/m3
- mass density (313.14 K, 8000 kPa, x2 = 0.9511): 679 ± 0.3 kg/m3
- mass density (313.14 K, 9000 kPa, x2 = 0.9511): 680 ± 0.3 kg/m3
- mass density (313.14 K, 10000 kPa, x2 = 0.9511): 680.9 ± 0.3 kg/m3
- mass density (313.14 K, 11000 kPa, x2 = 0.9511): 681.8 ± 0.3 kg/m3
- mass density (313.14 K, 12000 kPa, x2 = 0.9511): 682.7 ± 0.4 kg/m3
- mass density (313.14 K, 13000 kPa, x2 = 0.9511): 683.6 ± 0.4 kg/m3
- mass density (313.14 K, 14001 kPa, x2 = 0.9511): 684.5 ± 0.4 kg/m3
- mass density (313.14 K, 15001 kPa, x2 = 0.9511): 685.4 ± 0.4 kg/m3
- mass density (313.14 K, 16000 kPa, x2 = 0.9511): 686.3 ± 0.4 kg/m3
- mass density (313.14 K, 17001 kPa, x2 = 0.9511): 687.1 ± 0.4 kg/m3
- mass density (313.14 K, 18001 kPa, x2 = 0.9511): 687.9 ± 0.4 kg/m3
- mass density (313.14 K, 19000 kPa, x2 = 0.9511): 688.7 ± 0.4 kg/m3
- mass density (313.14 K, 20000 kPa, x2 = 0.9511): 689.5 ± 0.4 kg/m3
- mass density (313.14 K, 21001 kPa, x2 = 0.9511): 690.3 ± 0.4 kg/m3
- mass density (313.14 K, 22000 kPa, x2 = 0.9511): 691.1 ± 0.4 kg/m3
- mass density (313.14 K, 23001 kPa, x2 = 0.9511): 691.9 ± 0.4 kg/m3
- mass density (313.14 K, 24000 kPa, x2 = 0.9511): 692.6 ± 0.5 kg/m3
- mass density (313.14 K, 25000 kPa, x2 = 0.9511): 693.3 ± 0.5 kg/m3
- mass density (313.15 K, 1000 kPa, x2 = 0.7482): 687.4 ± 0.3 kg/m3
- mass density (313.15 K, 1001 kPa, x2 = 0.05): 724.3 ± 0.3 kg/m3
- mass density (313.15 K, 2000 kPa, x2 = 0.7482): 688.4 ± 0.3 kg/m3
- mass density (313.15 K, 2001 kPa, x2 = 0.05): 725.1 ± 0.3 kg/m3
- mass density (313.15 K, 3000 kPa, x2 = 0.05): 726 ± 0.3 kg/m3
- mass density (313.15 K, 3000 kPa, x2 = 0.7482): 689.4 ± 0.3 kg/m3
- mass density (313.15 K, 4000 kPa, x2 = 0.05): 726.8 ± 0.3 kg/m3
- mass density (313.15 K, 4000 kPa, x2 = 0.7482): 690.4 ± 0.3 kg/m3
- mass density (313.15 K, 5000 kPa, x2 = 0.05): 727.6 ± 0.3 kg/m3
- mass density (313.15 K, 5000 kPa, x2 = 0.7482): 691.3 ± 0.3 kg/m3
- mass density (313.15 K, 6000 kPa, x2 = 0.05): 728.4 ± 0.3 kg/m3
- mass density (313.15 K, 6000 kPa, x2 = 0.7482): 692.3 ± 0.3 kg/m3
- mass density (313.15 K, 7000 kPa, x2 = 0.05): 729.2 ± 0.3 kg/m3
- mass density (313.15 K, 7000 kPa, x2 = 0.7482): 693.2 ± 0.3 kg/m3
- mass density (313.15 K, 8000 kPa, x2 = 0.7482): 694.1 ± 0.3 kg/m3
- mass density (313.15 K, 8001 kPa, x2 = 0.05): 730 ± 0.3 kg/m3
- mass density (313.15 K, 9000 kPa, x2 = 0.05): 730.8 ± 0.3 kg/m3
- mass density (313.15 K, 9000 kPa, x2 = 0.7482): 695 ± 0.3 kg/m3
- mass density (313.15 K, 10000 kPa, x2 = 0.05): 731.6 ± 0.3 kg/m3
- mass density (313.15 K, 10000 kPa, x2 = 0.7482): 695.9 ± 0.3 kg/m3
- mass density (313.15 K, 11000 kPa, x2 = 0.05): 732.3 ± 0.3 kg/m3
- mass density (313.15 K, 11000 kPa, x2 = 0.7482): 696.8 ± 0.3 kg/m3
- mass density (313.15 K, 12000 kPa, x2 = 0.05): 733.1 ± 0.3 kg/m3
- mass density (313.15 K, 12000 kPa, x2 = 0.7482): 697.6 ± 0.3 kg/m3
- mass density (313.15 K, 13000 kPa, x2 = 0.05): 733.8 ± 0.3 kg/m3
- mass density (313.15 K, 13000 kPa, x2 = 0.7482): 698.5 ± 0.4 kg/m3
- mass density (313.15 K, 14000 kPa, x2 = 0.05): 734.5 ± 0.3 kg/m3
- mass density (313.15 K, 14000 kPa, x2 = 0.7482): 699.3 ± 0.4 kg/m3
- mass density (313.15 K, 15000 kPa, x2 = 0.05): 735.2 ± 0.3 kg/m3
- mass density (313.15 K, 15000 kPa, x2 = 0.7482): 700.1 ± 0.4 kg/m3
- mass density (313.15 K, 16000 kPa, x2 = 0.05): 735.9 ± 0.4 kg/m3
- mass density (313.15 K, 16000 kPa, x2 = 0.7482): 700.9 ± 0.4 kg/m3
- mass density (313.15 K, 17000 kPa, x2 = 0.05): 736.6 ± 0.4 kg/m3
- mass density (313.15 K, 17000 kPa, x2 = 0.7482): 701.7 ± 0.4 kg/m3
- mass density (313.15 K, 18000 kPa, x2 = 0.05): 737.3 ± 0.4 kg/m3
- mass density (313.15 K, 18000 kPa, x2 = 0.7482): 702.5 ± 0.4 kg/m3
- mass density (313.15 K, 19000 kPa, x2 = 0.05): 738 ± 0.4 kg/m3
- mass density (313.15 K, 19000 kPa, x2 = 0.7482): 703.3 ± 0.4 kg/m3
- mass density (313.15 K, 20000 kPa, x2 = 0.05): 738.7 ± 0.4 kg/m3
- mass density (313.15 K, 20000 kPa, x2 = 0.7482): 704 ± 0.4 kg/m3
- mass density (313.15 K, 21000 kPa, x2 = 0.05): 739.3 ± 0.4 kg/m3
- mass density (313.15 K, 21000 kPa, x2 = 0.7482): 704.8 ± 0.4 kg/m3
- mass density (313.15 K, 22000 kPa, x2 = 0.7482): 705.5 ± 0.4 kg/m3
- mass density (313.15 K, 22001 kPa, x2 = 0.05): 740 ± 0.4 kg/m3
